12 molecules from the SangsterLogP compilation can be followed below.

What is called logP is the decadic logarithm of the partition coefficient of the neutral form, usually between octanol and water.

Take `CCC(CC)CC(=O)O`: the lipophilicity (logP) worked out at 2.19. The molecule `CCCCN(CCCC)C(=O)CCC(=O)O` returned a logP of 2.3. To `CCCC(CCC)C(=O)O` belongs 2.57. `O=C(O)CC1CCCCC1` registered a lipophilicity (logP) of 2.31.

`CCCCC(CCCC)C(=O)O`: the lipophilicity (logP) is 3.34. To `CCC(C)(C)C(=O)O` belongs 1.9. With `C/C=C/C(=C\CC)C(=O)O` the figure was 2.27. To `CC(C)CCn1cnnn1` belongs 1.29; to `CC1(C(=O)O)CCCCC1`, 2.38; to `CCC=C(CCC)C(=O)O`, 2.44. Consider `CCCC(CC(C)=O)C(=O)O` (configuration not stated), for which the logP turned out to be 1.31. To `CCCCCCCc1nn[nH]n1` belongs 2.01.
